Tests used:
[1] = system: azithromycin-induced emesis in azithromycin-sensitive English pointers; test: Control of azithromycin-induced emesis in an azithromycin-sensitive dog population; type: in vivo
Description: (§1) The ability of various compounds to control azithromycin-induced emesis in dogs was measured in 13 studies using two groups of dogs. The majority of the studies were conducted using a family (dam and offspring) of 12 azithromycin-sensitive English pointers, bred and maintained by Young Veterinary Research Services of Turlock, Calif. The remaining studies were conducted using random source dogs maintained at the Pfizer Animal Health Research facility in Terre Haute, Ind. In all studies, azithromycin was administered in immediate release formulations at a dose of 10 mg/kg.
Initially, four commercialized antiemetic products and CP122,721 were screened individually in the azithromycin-sensitive population with a minimum 7 day washout period between antiemetic tests. Antiemetics were administered orally about 15 to 30 minutes prior to oral treatment with 10 mg/kg azithromycin in an immediate release tablet. […] Other antiemetics reduced the incidence of emesis by only about 10 to 42%.
(§2) Four studies were conducted to titrate the dose of CP122,721 for maximum antiemetic activity with and without a delay between oral antiemetic and oral azithromycin dosing. […] While these studies were in progress, random source dogs (8 per-treatment) were administered 0, 1.5 or 3 mg/kg CP122,721 simultaneously with 10 mg/kg azithromycin. […] In the fourth study, the sensitive pointers received either 3 or 4 mg/kg CP122,721 simultaneously with azithromycin. The incidence of emesis was equivalent with one dog in each treatment group vomiting.

emesis in ferrets = conditions: vomiting caused by intragastric copper sulfate and ipecac syrup, subcutaneous loperamide, intraperitoneal cisplatin; cited from earlier work
[2] = system: azithromycin-induced emesis in random source dogs; test: Control of azithromycin-induced emesis in random source dogs; type: in vivo, dog; conditions: for Emetic Dogs/Total Dogs: Random source dogs, 0 minutes before (simultaneously with) azithromycin 10 mg/kg
Description: as §1, §2

[3] = antiemetic 1 mg/kg oral, 30 minutes before azithromycin 10 mg/kg oral immediate release tablet

With Cc1nccn1CC1CCc2c(c3ccccc3n2C)C1=O (centres unmarked) [Ondansetron, reference compound] the “Emetic Dogs/Total Dogs” value [1, 3] was 5/12 and the “reduction of the incidence of emesis” value ([1]; antiemetic oral about 15 to 30 minutes prior to oral azithromycin 10 mg/kg, doses as in Table 1) was 58%.
In the case of COc1ccc(OC(F)(F)F)cc1CN[C@H]1CCCN[C@H]1c1ccccc1 [CP122,721, (2S,3S)-3-(2-methoxy-5-trifluoromethoxybenzyl)amino-2-phenylpiperidine], the “effect on vomiting in ferrets (in words)” value (emesis in ferrets) is listed as “reduces vomiting”, the “effective in preventing emesis” value ([1]; 5 mg/kg oral, about 15 to 30 minutes prior to oral azithromycin 10 mg/kg) is listed as 100% and the “Emetic Dogs/Total Dogs” value ([1]; Sensitive dogs, 30 minutes before azithromycin 10 mg/kg) is listed as 0/4. The “Emetic Dogs/Total Dogs” value ([1]; Sensitive dogs, CP122,721 1 mg/kg oral, 30 minutes before azithromycin 10 mg/kg) was 4/4, the “Emetic Dogs/Total Dogs” value ([1]; Sensitive dogs, CP122,721 2.5 mg/kg oral, 0 minutes before (simultaneously with) azithromycin 10 mg/kg) was 6/6 and the “Emetic Dogs/Total Dogs” value ([1]; Sensitive dogs, CP122,721 2.5 mg/kg oral, 30 minutes before azithromycin 10 mg/kg) was 0/6. For the same molecule, the “Emetic Dogs/Total Dogs” value ([1]; Sensitive dogs, CP122,721 3 mg/kg, 0 minutes before (simultaneously with) azithromycin 10 mg/kg) was 1/6, the “Emetic Dogs/Total Dogs” value ([1]; Sensitive dogs, CP122,721 4 mg/kg, 0 minutes before (simultaneously with) azithromycin 10 mg/kg) was 1/6 and the “Emetic Dogs/Total Dogs” value ([1]; Sensitive dogs, CP122,721 dose cell blank (third line of first titration), 30 minutes before azithromycin 10 mg/kg) was 0/4. The “Emetic Dogs/Total Dogs” value ([1]; antiemetic 5 mg/kg oral, 30 minutes before azithromycin 10 mg/kg oral immediate release tablet) was 0/12, the “emesis (in words)” value ([1]; sensitive pointers, 2.5 mg/kg simultaneously with azithromycin) was “all pointers were emetic” and the “prevention of emesis (in words)” value ([1]; sensitive pointers, 2.5 mg/kg, 30 minutes prior to azithromycin) was “effective in preventing emesis”. For the same molecule, the “dogs vomiting in treatment group” value ([1]; sensitive pointers, 3 mg/kg simultaneously with azithromycin) was “one”, the “dogs vomiting in treatment group” value ([1]; sensitive pointers, 4 mg/kg simultaneously with azithromycin) was “one” and the “Emetic Dogs/Total Dogs” value ([2]; CP122,721 1.5 mg/kg) was 4/8. The “Emetic Dogs/Total Dogs” value ([2]; CP122,721 3 mg/kg) was 0/8, the “incidence of emesis (in words)” value ([2]; random source dogs, 8 per treatment, 1.5 mg/kg simultaneously with 10 mg/kg azithromycin) was “not reduced” and the “prevention of azithromycin emesis (in words)” value ([2]; random source dogs, 8 per treatment, 3 mg/kg simultaneously with 10 mg/kg azithromycin) was “completely effective”.
For CCN(CC)CCNC(=O)c1cc(Cl)c(N)cc1OC [Metoclopramide, reference compound], the “Emetic Dogs/Total Dogs” value ([1]; antiemetic 0.5 mg/kg oral, 15 minutes before azithromycin 10 mg/kg oral immediate release tablet) was 11/12.
In the case of CN(C)CCOC(c1ccccc1)c1ccccc1.Cn1c(=O)c2[nH]c(Cl)nc2n(C)c1=O [Dimenhydrinate, reference compound], the “Emetic Dogs/Total Dogs” value ([1]; antiemetic 8 mg/kg oral, 30 minutes before azithromycin 10 mg/kg oral immediate release tablet) is reported as 10/12.
In the case of CN1CCN(CCCN2c3ccccc3Sc3ccc(Cl)cc32)CC1 [Prochlorperazine, reference compound], the “Emetic Dogs/Total Dogs” value [1, 3] is reported as 7/12.
